Results reported in patent publication US6005007A, “Retinoids, methods for their production and use” (priority 1997, dated 1999).

How the values were obtained:
[1] = target: T1, RARα (Homo sapiens, UniProt P10276); test: Receptor binding, RARα; conditions: tritiated retinoid competition
T1 sequence (P10276 1-462): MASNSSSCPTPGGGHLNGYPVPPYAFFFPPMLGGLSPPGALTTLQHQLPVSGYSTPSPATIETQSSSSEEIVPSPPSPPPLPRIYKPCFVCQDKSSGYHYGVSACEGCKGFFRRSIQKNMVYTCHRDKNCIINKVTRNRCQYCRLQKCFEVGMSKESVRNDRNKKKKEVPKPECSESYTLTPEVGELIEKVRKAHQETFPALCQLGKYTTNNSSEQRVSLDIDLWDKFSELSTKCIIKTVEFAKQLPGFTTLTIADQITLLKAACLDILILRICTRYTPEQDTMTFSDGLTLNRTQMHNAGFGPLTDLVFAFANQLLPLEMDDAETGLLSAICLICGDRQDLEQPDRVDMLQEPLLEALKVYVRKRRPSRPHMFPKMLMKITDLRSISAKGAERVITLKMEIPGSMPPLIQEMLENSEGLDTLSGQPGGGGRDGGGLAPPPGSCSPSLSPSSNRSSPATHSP

[2] = target: T2, RXRα (Homo sapiens, UniProt P19793); test: Co-transfection assay, RXRα agonist activity; assay type: cell-based; set-up: expressed in transfected cells; host or cells: CV-1 (African green monkey kidney fibroblasts); conditions: CV-1 cells, luciferase reporter, read-out: RXRα Pot
T2 sequence (P19793 1-462): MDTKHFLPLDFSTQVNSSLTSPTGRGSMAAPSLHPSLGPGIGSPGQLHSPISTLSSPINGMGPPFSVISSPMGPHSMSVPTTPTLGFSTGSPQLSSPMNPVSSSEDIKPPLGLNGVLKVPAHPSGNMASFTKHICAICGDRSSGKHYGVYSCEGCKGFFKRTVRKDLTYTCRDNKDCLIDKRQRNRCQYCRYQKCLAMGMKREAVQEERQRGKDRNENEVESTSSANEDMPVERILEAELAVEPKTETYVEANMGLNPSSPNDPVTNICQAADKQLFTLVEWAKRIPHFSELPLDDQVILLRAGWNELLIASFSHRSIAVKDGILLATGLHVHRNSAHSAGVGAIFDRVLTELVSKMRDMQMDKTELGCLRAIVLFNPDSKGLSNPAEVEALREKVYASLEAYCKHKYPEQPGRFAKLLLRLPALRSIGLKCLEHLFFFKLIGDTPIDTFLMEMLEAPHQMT

[3] = target: T3, RXRγ (Mus musculus, UniProt P28705); test: Receptor binding, RXRγ; conditions: tritiated retinoid competition
T3 construct: expressed in transfected cells; host or cells: CV-1 (African green monkey kidney fibroblasts)
T3 sequence (P28705 1-463): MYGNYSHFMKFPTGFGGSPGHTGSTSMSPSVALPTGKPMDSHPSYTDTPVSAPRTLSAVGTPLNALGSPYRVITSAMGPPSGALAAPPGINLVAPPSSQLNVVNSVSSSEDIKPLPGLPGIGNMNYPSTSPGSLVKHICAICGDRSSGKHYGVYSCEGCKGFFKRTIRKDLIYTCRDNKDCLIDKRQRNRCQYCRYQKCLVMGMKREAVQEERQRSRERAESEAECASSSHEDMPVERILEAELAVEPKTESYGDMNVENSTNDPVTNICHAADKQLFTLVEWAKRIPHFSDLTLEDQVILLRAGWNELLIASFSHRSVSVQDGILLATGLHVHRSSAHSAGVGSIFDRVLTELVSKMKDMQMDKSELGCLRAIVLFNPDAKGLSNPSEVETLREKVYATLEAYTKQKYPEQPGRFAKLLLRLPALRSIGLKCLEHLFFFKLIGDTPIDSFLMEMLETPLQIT

[4] = target: T1, RARα; test: Co-transfection assay, RARα agonist activity; assay type: cell-based; set-up: expressed in transfected cells; host or cells: CV-1 (African green monkey kidney fibroblasts); conditions: CV-1 cells, luciferase reporter, read-out: RARα Pot
[5] = target: T4, RARβ (Homo sapiens, UniProt P10826); test: Co-transfection assay, RARβ agonist activity; assay type: cell-based; set-up: expressed in transfected cells; host or cells: CV-1 (African green monkey kidney fibroblasts); conditions: CV-1 cells, luciferase reporter, read-out: RARβ Pot
T4 sequence (P10826 1-448 isoform P10826-2): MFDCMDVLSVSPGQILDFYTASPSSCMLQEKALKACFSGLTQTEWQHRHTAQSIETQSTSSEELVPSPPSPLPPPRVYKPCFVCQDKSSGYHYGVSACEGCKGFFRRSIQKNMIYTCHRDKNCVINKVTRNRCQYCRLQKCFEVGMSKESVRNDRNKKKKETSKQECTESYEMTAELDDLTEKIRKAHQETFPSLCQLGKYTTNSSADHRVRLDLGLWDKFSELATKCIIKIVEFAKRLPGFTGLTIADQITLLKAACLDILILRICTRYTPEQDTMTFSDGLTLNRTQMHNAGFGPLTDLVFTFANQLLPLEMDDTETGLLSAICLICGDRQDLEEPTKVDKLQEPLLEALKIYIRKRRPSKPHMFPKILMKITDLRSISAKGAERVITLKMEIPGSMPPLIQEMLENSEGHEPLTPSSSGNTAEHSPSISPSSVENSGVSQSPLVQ

[6] = target: T5, RARγ (Homo sapiens, UniProt P13631); test: Co-transfection assay, RARγ agonist activity; assay type: cell-based; set-up: expressed in transfected cells; host or cells: CV-1 (African green monkey kidney fibroblasts); conditions: CV-1 cells, luciferase reporter, read-out: RARγ Pot
T5 sequence (P13631 1-454): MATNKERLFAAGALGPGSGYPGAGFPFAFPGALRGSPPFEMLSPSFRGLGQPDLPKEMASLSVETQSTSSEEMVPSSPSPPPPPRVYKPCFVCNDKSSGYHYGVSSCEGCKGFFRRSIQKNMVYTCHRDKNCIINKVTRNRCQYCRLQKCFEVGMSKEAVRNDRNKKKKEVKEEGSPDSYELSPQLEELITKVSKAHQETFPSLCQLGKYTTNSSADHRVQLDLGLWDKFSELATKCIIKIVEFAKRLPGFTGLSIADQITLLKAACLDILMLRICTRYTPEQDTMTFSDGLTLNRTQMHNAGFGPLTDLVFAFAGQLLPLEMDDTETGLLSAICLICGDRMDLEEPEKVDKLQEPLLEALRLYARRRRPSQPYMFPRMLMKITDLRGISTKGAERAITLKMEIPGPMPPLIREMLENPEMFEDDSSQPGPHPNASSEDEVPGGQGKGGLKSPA

[7] = target: T3, RXRγ; test: Co-transfection assay, RXRγ agonist activity; assay type: cell-based; conditions: CV-1 cells, luciferase reporter, read-out: RXRγ Pot
[8] = target: T2, RXRα; test: Receptor binding, RXRα; conditions: tritiated retinoid competition

| SMILES | Kd [1] | EC50 [2] | Kd [3] | EC50 [4] | EC50 [5] | EC50 [6] | EC50 [7] | Kd [8] |
| --- | --- | --- | --- | --- | --- | --- | --- | --- |
| CC(/C=C/CC1(c2ccc3c(c2)C(C)(C)CCC3(C)C)CC1)=C\C(=O)O [Compound 101, (2E, 4E)-6-[1-(5,5,8,8-Tetramethyl-5,6,7,8-tetrahydronaphtha-len-2-yl)cyclopropanyl]-3-methyl hexadienoic acid] | 0.644 µM | 0.013 µM | 0.008 µM | 0.059 µM | 0.017 µM | 0.024 µM | 0.014 µM | 0.002 µM |
| CC(/C=C/CC1(c2cc(C(C)(C)C)cc3c2CCC3(C)C)CC1)=C\C(=O)O [Compound 107, (2E, 4E)-6-[1-(6-t-butyl-1,1-dimethyl-indan-4-yl)-cyclopropyl]-3-methyl hexadienoic acid] | > 5 µM | 0.034 µM | 0.022 µM | > 10 µM | > 10 µM | > 10 µM | 0.02 µM | 0.006 µM |
| CC(/C=C/CC1(c2ccc3c(c2)C(C)(C)CCC3(C)C)CCCC1)=C\C(=O)O [Compound 108, (2E, 4E)-6-[(5,5,8,8-Tetramethyl-5,6,7,8-tetrahydronaphtha-len-2-yl)cyclopentane-1-yl]-3-methyl hexadienoic acid] | > 5 µM | 0.063 µM | 0.128 µM | > 10 µM | > 10 µM | > 10 µM | 0.066 µM | 0.041 µM |
